Read-outs that look alike come from different tables or passages of the source.
Tests used:
Test in all cases: 3H-TdR (3H-thymidine) incorporation assay at 72 hr
SF-268 = format: cell-based, Human
MCF-7 = format: cell-based, Human
H-460 = format: cell-based, Human
CEM/dCK- = format: cell-based; details: for Factor* (Resistance Factor = Ratio of dCK- on Wild-type CCRF-CEM): ratio of IC50 CEM/dCK- to CCRF-CEM, 24 h
Description: (§1) Table of IC50 Values (μM) for Controls
(§2) Exposition of 24 hr to drug, wash, incubated for another 48 hr (total of 72 hr assay)
(§3) (3H-Thymidine Incorporation Assay)

CCRF-CEM = format: cell-based
Description: as §1, §2, §3

[1] = Homo sapiens, SF-268, read-out: IC50 SF-268 24 h, 24 h drug exposure, wash, another 48 hr, 3H-TdR incorporation at 72 hr
[2] = Homo sapiens, MCF7, read-out: IC50 MCF-7 24 h, 24 h drug exposure, wash, another 48 hr, 3H-TdR incorporation at 72 hr
[3] = Homo sapiens, NCI-H460, read-out: IC50 H-460 24 h, 24 h drug exposure, wash, another 48 hr, 3H-TdR incorporation at 72 hr
[4] = Homo sapiens, CCRF-CEM, read-out: IC50 CEM/dCK- 24 h, 24 h drug exposure, wash, another 48 hr, deoxycytidine kinase-deficient CCRF-CEM
[5] = Homo sapiens, CCRF-CEM, read-out: IC50 CCRF-CEM 24 h, 24 h drug exposure, wash, another 48 hr, 3H-TdR incorporation at 72 hr
[6] = Homo sapiens, SF-268, read-out: IC50 SF-268 24 h
[7] = Homo sapiens, MCF7, read-out: IC50 MCF-7 24 h
[8] = Homo sapiens, NCI-H460, read-out: IC50 H-460 24 h
[9] = Homo sapiens, CCRF-CEM, read-out: IC50 CEM/dCK- 24 h
[10] = Homo sapiens, CCRF-CEM, read-out: IC50 CCRF-CEM 24 h

| Compound | IC50 (SF-268; [1]) | IC50 (MCF-7; [2]) | IC50 (H-460; [3]) | IC50 (CEM/dCK-; [4]) | Factor* (Resistance Factor = Ratio of dCK- on Wild-type CCRF-CEM) (CEM/dCK-) | IC50 (CCRF-CEM; [5]) | IC50 (SF-268; [6]) | IC50 (MCF-7; [7]) | IC50 (H-460; [8]) | IC50 (CEM/dCK-; [9]) | IC50 (CCRF-CEM; [10]) | IC50 (SF-268; read-out: IC50 SF-268 24 h, 24 h drug exposure, wash, another 48 hr, 3H-TdR incorporation at 72 hr, HYDROCHLORIDE) | IC50 (MCF-7; read-out: IC50 MCF-7 24 h, 24 h drug exposure, wash, another 48 hr, 3H-TdR incorporation at 72 hr, HYDROCHLORIDE) | IC50 (H-460; read-out: IC50 H-460 24 h, 24 h drug exposure, wash, another 48 hr, 3H-TdR incorporation at 72 hr, HYDROCHLORIDE) | IC50 (CEM/dCK-; read-out: IC50 CEM/dCK- 24 h, 24 h drug exposure, wash, another 48 hr, deoxycytidine kinase-deficient CCRF-CEM, HYDROCHLORIDE) | IC50 (CCRF-CEM; read-out: IC50 CCRF-CEM 24 h, 24 h drug exposure, wash, another 48 hr, 3H-TdR incorporation at 72 hr, HYDROCHLORIDE) |
| --- | --- | --- | --- | --- | --- | --- | --- | --- | --- | --- | --- | --- | --- | --- | --- | --- |
| O=C(O)C(F)(F)F.O=c1nc(NC/C=C/c2ccccc2)ccn1[C@@H]1CO[C@H](CO)O1 [Compound 89, 1-(2-HYDROXYMETHYL- [1,3]DIOXOLAN-4-YL)-4- (3-CINNAMYL)-1H- PYRIMIDIN-2-ONE TRIFLUORO-ACETATE SALT] | 11000 nM | 220 nM | 3800 nM | > 100000 nM | 40 | 2500 nM | – | – | – | – | – | – | – | – | – | – |
| Nc1ccn([C@@H]2CO[C@H](COC/C=C/c3ccccc3)O2)c(=O)n1.O=C(O)C(F)(F)F [Compound 90, 4-AMINO-1-[2-(3- CINNAMYLOXYMETHYL)- [1,3]DIOXOLAN-4-YL]-1H- PYRIMIDIN-2-ONE TRIFLUOROACETATE SALT] | > 100000 nM | 61000 nM | 95000 nM | > 100000 nM | 1.5 | 65000 nM | – | – | – | – | – | – | – | – | – | – |
| CC(OC[C@H]1OC[C@@H](n2ccc(N)nc2=O)O1)OC1CCCCC1 (stereo partly shown) [Compound 92, 4-AMINO-1-[2-(1- CYCLOHEXYLOXY- ETHOXYMETHYL)- [1,3]DIOXOLAN-4-YL]-1H- PYRIMIDIN-2-ONE] | 4200 nM | 1600 nM | 2100 nM | > 100000 nM | 77 | 1300 nM | – | – | – | – | – | – | – | – | – | – |
| O=C(Nc1ccn([C@@H]2CO[C@H](COC(=O)C34CC5CC(CC(C5)C3)C4)O2)c(=O)n1)OCc1ccccc1 [Compound 101, ADAMANTANE-1-CARBOXYLIC ACID 4-(4- BENZYLOXYCARBONYLAMINO- 2-OXO-2H-PYRIMIDIN-1- YL)-[1,3]DIOXOLAN-2- YLMETHYL ESTER] | 2100 nM | 410 nM | 330 nM | 16000 nM | 44 | 360 nM | – | – | – | – | – | – | – | – | – | – |
| O=C(Nc1ccn([C@@H]2CO[C@H](COC(=O)C34CC5CC(CC(C5)C3)C4)O2)c(=O)n1)C12CC3CC(CC(C3)C1)C2 [Compound 102, ADAMANTANE-1-CARBOXYLIC ACID 4-{4-[(ADAMANTANE- 1-CARBONYL)-AMINO]-2- OXO-2H-PYRIMIDIN-1-YL}- [1,3]DIOXOLAN-2- YLMETHYL ESTER] | 1000 nM | 1700 nM | 190 nM | 11000 nM | 27 | 410 nM | – | – | – | – | – | – | – | – | – | – |
| O=C(Nc1ccn([C@@H]2CO[C@H](COC(=O)Oc3ccc(Cl)cc3)O2)c(=O)n1)Oc1ccc(Cl)cc1 [Compound 103] | – | – | – | – | 4,545 | – | 63 nM | 18 nM | 52 nM | 50000 nM | 11 nM | – | – | – | – | – |
| O=C(Nc1ccn([C@@H]2CO[C@H](CO)O2)c(=O)n1)Oc1ccc(Cl)cc1.O=C(O)C(F)(F)F [Compound 104, [1-(2-HYDROXYMETHYL- [1,3]DIOXOLAN-4-YL)-2- OXO-1,2-DIHYDRO- […]-4-YL]- CARBAMIC ACID 4-CHLORO- PHENYL ESTER TRIFLUOROACETATE SALT] | – | – | – | – | >476 | – | 470 nM | 470 nM | 270 nM | > 100000 nM | 210 nM | – | – | – | – | – |
| Nc1ccn([C@@H]2CO[C@H](COC(=O)Oc3ccc(Cl)cc3)O2)c(=O)n1.O=C(O)C(F)(F)F [Compound 105, CARBONIC ACID 4-(4- AMINO-2-OXO-2H- PYRIMIDIN-1-YL)- [1,3]DIOXOLAN-2- YLMETHYL ESTER 4- CHLORO-PHENYL ESTER TRIFLUOROACETATE SALT] | 71 nM | 68 nM | 80 nM | 79000 nM | 2393 | 33 nM | – | – | – | – | – | – | – | – | – | – |
| CC(C(=O)OC[C@H]1OC[C@@H](n2ccc(N)nc2=O)O1)c1ccccc1.Cl (stereo partly shown) [Compound 106, HYDROCHLORIDE] | – | – | – | – | – | – | – | – | – | – | – | 95 nM | 37 nM | 14 nM | 46000 nM | 10 nM |
| O=C(NCc1ccccc1)Nc1ccn([C@@H]2CO[C@H](CO)O2)c(=O)n1 [Compound 108, 1-BENZYL-3-[1-(2- HYDROXYMETHYL- [1,3]DIOXOLAN-4-YL)-2- OXO-1,2-DIHYDRO- PYRIMIDIN-4-YL]-UREA] | 3800 nM | 27000 nM | 1800 nM | > 100000 nM | >29 | 3400 nM | – | – | – | – | – | – | – | – | – | – |
| O=C(NCc1ccccc1)Nc1ccn([C@@H]2CO[C@H](COC(=O)NCc3ccccc3)O2)c(=O)n1 [Compound 109, BENZYL-CARBAMIC ACID 4- [4-(3-BENZYL-UREIDO)-2- OXO-2#H!-PYRIMIDIN-1- YL]-[1,3]DIOXOLAN-2- YLMETHYL ESTER] | 4800 nM | 31000 nM | 2600 nM | > 100000 nM | >100 | 1000 nM | – | – | – | – | – | – | – | – | – | – |
| CC(C)(C)OC(=O)N(CCCCC(=O)OC[C@H]1OC[C@@H](n2ccc(N)nc2=O)O1)Cc1ccccc1 [Compound 111, 5-(BENZYL-TERT- BUTOXYCARBONYL-AMINO)- PENTANOIC ACID 4-(4- AMINO-2-OXO-2H- PYRIMIDIN-1-YL)- [1,3]DIOXOLAN-2- YLMETHYL ESTER] | 2.1 nM | 0.26 nM | 0.13 nM | 2600 nM | 13000 | 0.2 nM | – | – | – | – | – | – | – | – | – | – |
| COc1cc2c(cc1OC)C(=O)/C(=C/c1cc(C)c(OC(=O)OC[C@H]3OC[C@@H](n4ccc(N)nc4=O)O3)c(C)c1)C2 [Compound 112] | – | – | – | – | 10 | – | 6.7 nM | 16 nM | 11 nM | – | 5.8 nM | – | – | – | – | – |
| COC1(OC[C@H]2OC[C@@H](n3ccc(N)nc3=O)O2)CCCCC1 [Compound 113, 4-AMINO-1-[2-(1- METHOXY- CYCLOHEXYLOXYMETHYL)- [1,3]DIOXOLAN-4-YL]-1H- PYRIMIDIN-2-ONE] | 1100 nM | 480 nM | 240 nM | > 100000 nM | >1667 | 60 nM | – | – | – | – | – | – | – | – | – | – |
| CC(C)(C)OC(=O)N(CCCCC(=O)Nc1ccn([C@@H]2CO[C@H](COC(=O)CCCCN(Cc3ccccc3)C(=O)OC(C)(C)C)O2)c(=O)n1)Cc1ccccc1 [Compound 114, 5-(BENZYL-TERT- BUTOXYCARBONYL-AMINO)- PENTANOIC ACID 4-{4-[5- (BENZYL-TERT- BUTOXYCARBONYL-AMINO)- PENTANOYLAMINO]-2-OXO- 2H!PYRIMIDIN-1-YL}- [1,3]DIOXOLAN-2- YLMETHYL ESTER] | 41 nM | 17 nM | 66 nM | 8000 nM | 500 | 16 nM | – | – | – | – | – | – | – | – | – | – |
| CC(C)(C)OC(=O)N(CCCCC(=O)Nc1ccn([C@@H]2CO[C@H](CO)O2)c(=O)n1)Cc1ccccc1 [Compound 115, BENZYL-{4-[1-(2- HYDROXYMETHYL- [1,3]DIOXOLAN-4-YL)-2- OXO-1,2-DIHYDRO- PYRIMIDIN-4- YLCARBAMOYL]-BUTYL}- CARBAMIC ACID TERT!- BUTYL ESTER] | 620 nM | 150 nM | 380 nM | > 100000 nM | >500 | 200 nM | – | – | – | – | – | – | – | – | – | – |
| COc1ccc(OC(=O)OC[C@H]2OC[C@@H](n3ccc(NC(=O)OCc4ccccc4)nc3=O)O2)cc1 [Compound 116, CARBONIC ACID 4-(4- BENZYLOXYCARBONYLAMINO- 2-OXO-2H-PYRIMIDIN-1- YL)-[1,3]DIOXOLAN-2- YLMETHYL ESTER 4- METHOXY-PHENYL ESTER] | 2500 nM | 110 nM | 1400 nM | > 100000 nM | >263 | 380 nM | – | – | – | – | – | – | – | – | – | – |
| COc1ccc(OC(=O)OC[C@H]2OC[C@@H](n3ccc(N)nc3=O)O2)cc1 [Compound 118, CARBONIC ACID 4-(4- AMINO-2-OXO-2H- PYRIMIDIN-1-YL)- [1,3]DIOXOLAN-2- YLMETHYL ESTER 4- METHOXY-PHENYL ESTER] | 160 nM | 77 nM | 22 nM | > 100000 nM | >3571 | 28 nM | – | – | – | – | – | – | – | – | – | – |
